Source: PMC5298231, “The Malaria Parasite's Lactate Transporter PfFNT Is the Target of Antiplasmodial Compounds Identified in Whole Cell Phenotypic Screens” (PLoS Pathogens, 2017)
Peptide text beside a SMILES is read from it.

System: erythrocytes infected with 3D7 trophozoites
Format: cell-based, Plasmodium falciparum
Settings: sheet Ratio; for Ratio of metabolite abundance, Exp1_1hr: Exp1, 1hr; for Ratio of metabolite abundance, Exp1_3hr: Exp1, 3hr; for Ratio of metabolite abundance, Exp1_6hr: Exp1, 6hr; for Ratio of metabolite abundance, Exp2_1hr: Exp2, 1hr; for Ratio of metabolite abundance, Exp2_3hr: Exp2, 3hr; for Ratio of metabolite abundance, Exp2_6hr: Exp2, 6hr; for Ratio of metabolite abundance, Exp3_1hr: Exp3, 1hr; for Ratio of metabolite abundance, Exp3_3hr: Exp3, 3hr; for Ratio of metabolite abundance, Exp3_6hr: Exp3, 6hr

| Compound | Ratio of metabolite abundance, Exp1_1hr | Ratio of metabolite abundance, Exp1_3hr | Ratio of metabolite abundance, Exp1_6hr | Ratio of metabolite abundance, Exp2_1hr | Ratio of metabolite abundance, Exp2_3hr | Ratio of metabolite abundance, Exp2_6hr | Ratio of metabolite abundance, Exp3_1hr | Ratio of metabolite abundance, Exp3_3hr | Ratio of metabolite abundance, Exp3_6hr |
| --- | --- | --- | --- | --- | --- | --- | --- | --- | --- |
| CC(C)C[C@H](NC(=O)[C@H](C)NC(=O)[C@@H](N)CC(=O)O)C(=O)N[C@H](C(=O)O)[C@@H](C)O [DALT] (H-DALT-OH) | 0.634 | 0.4153 | 1.635 | 0.755 | 0.5469 | 1.439 | 0.7343 | 0.6802 | 1.903 |
| CC(C)[C@H](NC(=O)[C@H](CCC(=O)O)NC(=O)[C@@H](N)CC(=O)O)C(=O)NCC(=O)O [DEVG] (H-DEVG-OH) | 1.013 | 0.6309 | 0.8753 | 0.8701 | 1.059 | 1.02 | 1.139 | 1.261 | 0.9839 |
| CCCCC/C=C\C/C=C\C/C=C\CCCCCCC(=O)O [DGLA] | 0.6512 | 0.4296 | 1.744 | 0.832 | 0.6938 | 1.456 | 0.7202 | 0.7277 | 2.242 |
| CC(C)C[C@H](NC(=O)[C@@H](N)CC(=O)O)C(=O)N[C@@H](CO)C(=O)O [DLS] (H-Asp-Leu-Ser-OH) | 0.4981 | 0.5494 | 0.8725 | 0.8907 | 0.8658 | 1.124 | 0.9354 | 0.5821 | 0.7887 |
| O=C1CC(C(=O)O)NC(=O)N1 (stereo not drawn) [Dihydroorotate] | 0.7855 | 0.5689 | 0.4919 | 0.9051 | 0.4712 | 0.6702 | 0.4693 | 0.4085 | 0.3763 |
| N[C@@H](CCC(=O)O)C(=O)N[C@@H](CO)C(=O)N[C@@H](Cc1ccccc1)C(=O)NCC(=O)O [ESFG] (H-ESFG-OH) | 1.207 | 0.8233 | 1.441 | 1.518 | 1.053 | 1.4585 | 1.266 | 0.9822 | 1.358 |
| CC(C)[C@H](NC(=O)[C@@H](N)CCC(=O)O)C(=O)NCC(=O)NCC(=O)O [EVGG] (H-EVGG-OH) | 1.013 | 0.7941 | 0.8262 | 1.036 | 0.9151 | 0.9384 | 0.988 | 0.9676 | 0.8158 |
| O=C[C@H](O)[C@H](O)COP(=O)(O)O [Erythrose 4-phosphate] | 0.8874 | 1.021 | 0.7492 | 0.7497 | 0.9809 | 0.8462 | 0.7238 | 0.584 | 0.3651 |
| Cc1cc2nc3c(=O)[nH]c(=O)nc-3n(C[C@H](O)[C@H](O)[C@H](O)COP(=O)(O)OP(=O)(O)OC[C@H]3O[C@@H](n4cnc5c(N)ncnc54)[C@H](O)[C@@H]3O)c2cc1C [FAD] | 0.999 | 0.6842 | 0.7003 | 0.9752 | 0.8156 | 0.7377 | 0.855 | 0.7422 | 0.5377 |
| Cc1cc2nc3c(=O)[nH]c(=O)nc-3n(C[C@H](O)[C@H](O)[C@H](O)COP(=O)(O)O)c2cc1C [FMN] | 0.8812 | 0.6056 | 0.6532 | 1.341 | 1.123 | 0.8423 | 0.5112 | 0.5214 | 0.5073 |
| O=P(O)(O)OC[C@H]1O[C@](O)(COP(=O)(O)O)[C@@H](O)[C@@H]1O [Fructose-1-6-bisphosphate] | 2.629 | 3.883 | 1.856 | 2.007 | 1.872 | 1.498 | 1.953 | 1.49 | 0.822 |
| O=P(O)(O)OC[C@H]1OC(O)(CO)[C@@H](O)[C@@H]1O (stereo partly drawn) [Fructose-6-Phosphate] | 1.008 | 1.026 | 1.013 | 1.111 | 1.041 | 0.9386 | 1.073 | 1.052 | 0.8397 |
| Nc1nc2c(ncn2[C@@H]2O[C@H](COP(=O)(O)OP(=O)(O)O[C@H]3O[C@H](CO)[C@@H](O)[C@H](O)[C@@H]3O)[C@@H](O)[C@H]2O)c(=O)[nH]1 [GDP-mannose] | 1.172 | 0.7132 | 0.4189 | 0.9396 | 0.7145 | 0.4773 | 0.9382 | 0.7837 | 0.5338 |
| Nc1nc2c(ncn2[C@@H]2O[C@H](COP(=O)(O)OP(=O)(O)O)[C@@H](O)[C@H]2O)c(=O)[nH]1 [GDP] | 0.4319 | 0.3131 | 0.5082 | 0.6304 | 0.5095 | 0.5364 | 0.8846 | 0.5153 | 0.569 |
| Nc1nc2c(ncn2[C@@H]2O[C@H](COP(=O)(O)O)[C@@H](O)[C@H]2O)c(=O)[nH]1 [GMP] | 0.2584 | 0.2388 | 0.4652 | 0.6356 | 0.2451 | 0.4274 | 0.5874 | 0.5355 | 0.8077 |
| Nc1nc2c(ncn2[C@@H]2O[C@H](COP(=O)(O)OP(=O)(O)OP(=O)(O)O)[C@@H](O)[C@H]2O)c(=O)[nH]1 [GTP] | 0.6647 | 0.5629 | 0.5991 | 0.6384 | 0.6479 | 0.6462 | 0.7156 | 0.6328 | 0.6081 |
| O=P(O)(O)OC[C@H]1OC(O)[C@H](O)[C@@H](O)[C@@H]1O (stereo partly drawn) [Glucose-6-Phosphate] | 0.8219 | 0.7353 | 0.7494 | 0.9729 | 0.8323 | 0.7319 | 0.8489 | 0.791 | 0.6337 |
| N[C@@H](CCC(=O)O)C(=O)O [Glutamate] | 1.14 | 0.9816 | 0.9735 | 1.0715 | 0.9058 | 0.8408 | 1.009 | 0.9619 | 1.158 |
| O=C[C@H](O)COP(=O)(O)O [Glyceraldehyde 3-phosphate] | 0.7448 | 0.7431 | 0.4349 | 0.5818 | 0.6033 | 0.4986 | 0.4745 | 0.6544 | 0.4238 |
